Experimental data from US8481730B2, “Method of synthesis of Bosentan, its polymorphic forms and its salts” (CIPLA Limited, priority 2008, dated 2013).

Details: on exposure to air; "stable" = non-hygroscopic, does not pick up moisture even in a highly humid atmosphere
Text: According to another aspect of the present invention, there is provided anhydrous bosentan.

COc1ccccc1Oc1c(NS(=O)(=O)c2ccc(C(C)(C)C)cc2)nc(-c2ncccn2)nc1OCCO [Form B, Bosentan Form B]
stability / hygroscopicity (moisture pick-up): stable and non-hygroscopic
